For 44 compounds, MIC results are on record in patent publication US11655225B2, “Antimycobacterial heterocyclic amides” (Crestone, Inc., priority 2018, dated 2023).

≈ marks a conversion by molar mass, not a printed value.

The test system of this assay is M. abscessus. Put plainly: MIC determination, CLSI M24-A. Particulars: Mycobacteroides abscessus, CLSI M24-A. Format: cell-based.
The term MIC denotes the lowest concentration that inhibits growth of the organism. Read a high MIC as a need for much substance. As for `CC1CCC(C(=O)Nc2nc3ccc(OC(F)(F)F)cc3s2)C1` (centres unmarked) [Example 102, 3-methyl-N-[6-(trifluoromethoxy)-1,3-benzothiazol-2-yl]cyclopentane-1-carboxamide], the minimal inhibitory concentration (MIC) lay in the range of 2 to 32 µg/mL (≈ 5.81 to 92.9 µM). The compound `CC1(C(=O)Nc2nc3c(F)c(F)c(F)cc3s2)CCCCCC1` [Example 103, 1-methyl-N-(4,5,6-trifluoro-1,3-benzothiazol-2-yl)cycloheptane-1-carboxamide] gave an MIC of 2 to 32 µg/mL (≈ 5.84 to 93.5 µM).

On to `CC1(C(=O)Nc2nc3ccc(OC(F)(F)F)cc3s2)CC2CCC1C2` (centres unmarked) [Example 104, 2-methyl-N-[6-(trifluoromethoxy)-1,3-benzothiazol-2-yl]bicyclo[2.2.1]heptane-2-carboxamide], for which the minimum inhibitory concentration (MIC) lay within 2 to 32 µg/mL (≈ 5.4 to 86.4 µM). `CC1(C(=O)Nc2cc3ccccc3s2)CCCCC1` [Example 105, N-(1-benzothiophen-2-yl)-1-methylcyclohexane-1-carboxamide] returned an MIC of 2 to 32 µg/mL (≈ 7.32 to 117 µM). Turning to `Cc1cc2nc(NC(=O)C3(C)CCCCC3)sc2c(C)c1Br` [Example 106, N-(6-bromo-5,7-dimethyl-1,3-benzothiazol-2-yl)-1-methylcyclohexane-1-carboxamide], the minimal inhibitory concentration (MIC) fell in the range of 2 to 32 µg/mL (≈ 5.24 to 83.9 µM).

`O=C(Nc1nc2ccc(Cl)cc2s1)C12CC3CC(CC(C3)C1)C2` [Example 107, N-(6-chloro-1,3-benzothiazol-2-yl)adamantane-1-carboxamide] had an MIC of 2 to 32 µg/mL (≈ 5.77 to 92.3 µM).

In turn, `O=C(Nc1nc2ccc(OC(F)F)cc2s1)C1CCCCCCC1` [Example 108, N-[6-(difluoromethoxy)-1,3-benzothiazol-2-yl]cyclooctanecarboxamide] displayed a minimum inhibitory concentration (MIC) of 2 to 32 µg/mL (≈ 5.64 to 90.3 µM). Turning to `O=C(Nc1nc2c(F)cc(F)cc2s1)C1CCCCCCC1` [Example 109, N-(4,6-difluoro-1,3-benzothiazol-2-yl)cyclooctanecarboxamide], the MIC fell in the range of 2 to 32 µg/mL (≈ 6.17 to 98.6 µM).

In the case of `O=C(Nc1nc2ccc(Cl)cc2s1)C1CCCCCCC1` [Example 110, N-(6-chloro-1,3-benzothiazol-2-yl)cyclooctanecarboxamide], the MIC lay within 2 to 32 µg/mL (≈ 6.19 to 99.1 µM). `CCOc1ccc2nc(NC(=O)C34CC5CC(C)(CC(C)(C5)C3)C4)sc2c1` [Example 111, N-(6-ethoxy-1,3-benzothiazol-2-yl)-3,5-dimethyladamantane-1-carboxamide] registered a minimal inhibitory concentration (MIC) of 2 to 32 µg/mL (≈ 5.2 to 83.2 µM).

The compound `CC12CC3CC(C)(C1)CC(C(=O)Nc1nc4cc(Cl)c(Cl)cc4o1)(C3)C2` [Example 112, N-(5,6-dichloro-1,3-benzoxazol-2-yl)-3,5-dimethyladamantane-1-carboxamide] returned a minimal inhibitory concentration (MIC) of 2 to 32 µg/mL (≈ 5.08 to 81.4 µM). As to `CC1CC(C(=O)Nc2nc3cc(Cl)c(Cl)cc3o2)CC(C)(C)C1` (centres unmarked) [Example 113, N-(5,6-dichloro-1,3-benzoxazol-2-yl)-3,3,5-trimethylcyclohexane-1-carboxamide], the minimal inhibitory concentration (MIC) fell in the range of 2 to 32 µg/mL (≈ 5.63 to 90.1 µM).

`CC1CC(C(=O)Nc2nc3cc(Cl)ccc3o2)CC(C)(C)C1` (centres unmarked) [Example 114, N-(5-chloro-1,3-benzoxazol-2-yl)-3,3,5-trimethylcyclohexane-1-carboxamide]: the minimal inhibitory concentration (MIC) lay in the range of 2 to 32 µg/mL (≈ 6.23 to 99.7 µM). On to `CC12CC3CC(C)(C1)CC(C(=O)Nc1nc4ccc(Br)cc4o1)(C3)C2` [Example 115, N-(6-bromo-1,3-benzoxazol-2-yl)-3,5-dimethyladamantane-1-carboxamide], for which the MIC fell in the range of 2 to 32 µg/mL (≈ 4.96 to 79.3 µM).

`O=C(Nc1nc2c(F)c(F)c(F)cc2s1)C1CCCCCCC1` [Example 116, N-(4,5,6-trifluoro-1,3-benzothiazol-2-yl)cyclooctanecarboxamide] returned an MIC of 2 to 32 µg/mL (≈ 5.84 to 93.5 µM). In the case of `CC12CC3CC(C)(C1)CC(C(=O)Nc1nc4ccc(Cl)cc4o1)(C3)C2` [Example 117, N-(6-chloro-1,3-benzoxazol-2-yl)-3,5-dimethyladamantane-1-carboxamide], the minimal inhibitory concentration (MIC) lay in the range of 2 to 32 µg/mL (≈ 5.57 to 89.2 µM).

`CC1CC(C(=O)Nc2nc3ccc(Cl)cc3o2)CC(C)(C)C1` (centres unmarked) [Example 118, N-(6-chloro-1,3-benzoxazol-2-yl)-3,3,5-trimethylcyclohexane-1-carboxamide] displayed a minimum inhibitory concentration (MIC) of 2 to 32 µg/mL (≈ 6.23 to 99.7 µM). As for `CC12CC3CC(C)(C1)CC(C(=O)Nc1nc4cc(F)c(F)cc4[nH]1)(C3)C2` [Example 119, N-(5,6-difluoro-1H-1,3-benzodiazol-2-yl)-3,5-dimethyladamantane-1-carboxamide], the figure is 2 to 32 µg/mL (≈ 5.56 to 89 µM); as for `CC12CC3CC(C)(C1)CC(C(=O)Nc1nc4ccc(F)cc4[nH]1)(C3)C2` [Example 120, N-(6-fluoro-1H-1,3-benzodiazol-2-yl)-3,5-dimethyladamantane-1-carboxamide], 2 to 32 µg/mL (≈ 5.86 to 93.7 µM). With `CC1CC(C(=O)Nc2nc3c(F)cccc3s2)CC(C)(C)C1` (centres unmarked) [Example 121, N-(4-fluoro-1,3-benzothiazol-2-yl)-3,3,5-trimethylcyclohexane-1-carboxamide], the MIC lay within 2 to 32 µg/mL (≈ 6.24 to 99.9 µM). As for `CC12CC3CC(C)(C1)CC(C(=O)Nc1nc4c(F)cccc4s1)(C3)C2` [Example 122, N-(4-fluoro-1,3-benzothiazol-2-yl)-3,5-dimethyladamantane-1-carboxamide], the figure is 2 to 32 µg/mL (≈ 5.58 to 89.3 µM). `CC12CC3CC(C)(C1)CC(C(=O)Nc1nc4ccc(F)cc4s1)(C3)C2` [Example 123, N-(6-fluoro-1,3-benzothiazol-2-yl)-3,5-dimethyladamantane-1-carboxamide]: the MIC is 2 to 32 µg/mL (≈ 5.58 to 89.3 µM). Compound `COc1ccc2nc(NC(=O)C34CC5CC(C)(CC(C)(C5)C3)C4)sc2c1` [Example 124, N-(6-methoxy-1,3-benzothiazol-2-yl)-3,5-dimethyladamantane-1-carboxamide] had an MIC of 2 to 32 µg/mL (≈ 5.4 to 86.4 µM). With `CC1CC(C(=O)Nc2nc3ccccc3s2)CC(C)(C)C1` (centres unmarked) [Example 125, N-(1,3-benzothiazol-2-yl)-3,3,5-trimethylcyclohexane-1-carboxamide], the MIC was in the range of 2 to 32 µg/mL (≈ 6.61 to 106 µM). `O=C(Nc1nc2ccc(C(F)(F)F)cc2s1)C1CCCC(C(F)(F)F)C1` (centres unmarked) [Example 126, 3-(trifluoromethyl)-N-[6-(trifluoromethyl)-1,3-benzothiazol-2-yl]cyclohexane-1-carboxamide] showed an MIC of 2 to 32 µg/mL (≈ 5.05 to 80.7 µM). The compound `CC1CCCC(C(=O)Nc2nc3ccc(C(F)(F)F)cc3s2)C1` (centres unmarked) [Example 127, 3-methyl-N-[6-(trifluoromethyl)-1,3-benzothiazol-2-yl]cyclohexane-1-carboxamide] showed an MIC of 2 to 32 µg/mL (≈ 5.84 to 93.5 µM). As for `CC1(C(=O)Nc2nc3ccc(C(F)(F)F)cc3s2)CCCC1` [Example 128, 1-methyl-N-[6-(trifluoromethyl)-1,3-benzothiazol-2-yl]cyclopentane-1-carboxamide], the figure is 2 to 32 µg/mL (≈ 6.09 to 97.5 µM); as for `C[C@]1(C(=O)Nc2nc3ccc(OC(F)(F)F)cc3s2)C[C@@H]2C=C[C@H]1C2` [Example 129, (1R,2S,4R)-2-methyl-N-[6-(trifluoromethoxy)-1,3-benzothiazol-2-yl]bicyclo[2.2.1]hept-5-ene-2-carboxamide], 2 to 32 µg/mL (≈ 5.43 to 86.9 µM). Compound `O=C(Nc1nc2ccc(OC(F)(F)F)cc2s1)C1CCCC1` [Example 130, N-[6-(trifluoromethoxy)-1,3-benzothiazol-2-yl]cyclopentanecarboxamide] gave an MIC of 2 to 32 µg/mL (≈ 6.05 to 96.9 µM).

In turn, `O=C(Nc1nc2ccccc2o1)C1C2CC3CC(C2)CC1C3` (centres unmarked) [Example 131, N-(1,3-benzoxazol-2-yl)adamantane-2-carboxamide] gave an MIC of 2 to 32 µg/mL (≈ 6.75 to 108 µM). Take `CC12CCCC(C(=O)Nc3nc4ccc(C(F)(F)F)cc4o3)(CCC1)C2` [Example 132, 5-methyl-N-[6-(trifluoromethyl)-1,3-benzoxazol-2-yl]bicyclo[3.3.1]nonane-1-carboxamide]: the minimal inhibitory concentration (MIC) lay in the range of 2 to 32 µg/mL (≈ 5.46 to 87.3 µM). With `CC1(C(=O)Nc2nc3cc(F)cc(F)c3s2)CCCCC1` [Example 133, N-(5,7-difluoro-1,3-benzothiazol-2-yl)-1-methylcyclohexane-1-carboxamide], the MIC lay in the range of 2 to 32 µg/mL (≈ 6.44 to 103 µM). As for `CC1(C(=O)Nc2nc3ccc(Br)cc3s2)CCCCC1` [Example 134, N-(6-bromo-1,3-benzothiazol-2-yl)-1-methylcyclohexane-1-carboxamide], the figure is 2 to 32 µg/mL (≈ 5.66 to 90.6 µM); as for `CC1(C(=O)Nc2nc3ccc(Cl)cc3s2)CCCCC1` [Example 135, N-(6-chloro-1,3-benzothiazol-2-yl)-1-methylcyclohexane-1-carboxamide], 2 to 32 µg/mL (≈ 6.48 to 104 µM).

Compound `CC1(C(=O)Nc2nc3ccc(OC(F)(F)F)cc3s2)CCCC1` [Example 136, 1-methyl-N-[6-(trifluoromethoxy)-1,3-benzothiazol-2-yl]cyclopentane-1-carboxamide] registered an MIC of 2 to 32 µg/mL (≈ 5.81 to 92.9 µM). In turn, `CC1(C(=O)Nc2nc3ccc(OC(F)(F)F)cc3s2)CC2CC2C1` (centres unmarked) [Example 137, 3-methyl-N-[6-(trifluoromethoxy)-1,3-benzothiazol-2-yl]bicyclo[3.1.0]hexane-3-carboxamide] came in with an MIC of 2 to 32 µg/mL (≈ 5.61 to 89.8 µM). As for `CCOc1ccc2nc(NC(=O)C3CC4CCCC(C4)C3)sc2c1` (centres unmarked) [Example 138, N-(6-ethoxy-1,3-benzothiazol-2-yl)bicyclo[3.3.1]nonane-3-carboxamide], the figure is 2 to 32 µg/mL (≈ 5.81 to 92.9 µM). `O=C(Nc1nc2c(F)cc(F)cc2s1)C1CCCCCC1` [Example 139, N-(4,6-difluoro-1,3-benzothiazol-2-yl)cycloheptanecarboxamide]: the minimal inhibitory concentration (MIC) fell in the range of 2 to 32 µg/mL (≈ 6.44 to 103 µM). In turn, `CC12CC3CC(C)(C1)CC(C(=O)Nc1nc4cc(Cl)ccc4o1)(C3)C2` [Example 140, N-(5-chloro-1,3-benzoxazol-2-yl)-3,5-dimethyladamantane-1-carboxamide] yielded an MIC of 2 to 32 µg/mL (≈ 5.57 to 89.2 µM).

`O=C(Nc1nc2c(F)c(F)c(F)cc2s1)C1CCCCCC1` [Example 141, N-(4,5,6-trifluoro-1,3-benzothiazol-2-yl)cycloheptanecarboxamide]: the MIC is 2 to 32 µg/mL (≈ 6.09 to 97.5 µM). `CC1CC(C(=O)Nc2nc3cc(Cl)cc(Cl)c3o2)CC(C)(C)C1` (centres unmarked) [Example 142, N-(5,7-dichloro-1,3-benzoxazol-2-yl)-3,3,5-trimethylcyclohexane-1-carboxamide] registered an MIC of 2 to 32 µg/mL (≈ 5.63 to 90.1 µM). For `Cc1cc(C)c2oc(NC(=O)C3CC(C)CC(C)(C)C3)nc2c1` (centres unmarked) [Example 143, N-(5,7-dimethyl-1,3-benzoxazol-2-yl)-3,3,5-trimethylcyclohexane-1-carboxamide], the minimal inhibitory concentration (MIC) lay within 2 to 32 µg/mL (≈ 6.36 to 102 µM).

The compound `CC12CC3CC(C)(C1)CC(C(=O)Nc1nc4c(F)cccc4o1)(C3)C2` [Example 144, N-(4-fluoro-1,3-benzoxazol-2-yl)-3,5-dimethyladamantane-1-carboxamide] had an MIC of 2 to 32 µg/mL (≈ 5.84 to 93.5 µM). As for `COc1ccc2nc(NC(=O)C34CC5CC(C)(CC(C)(C5)C3)C4)oc2c1` [Example 145, N-(6-methoxy-1,3-benzoxazol-2-yl)-3,5-dimethyladamantane-1-carboxamide], the figure is 2 to 32 µg/mL (≈ 5.64 to 90.3 µM).
